# Tests used:
# [1] = tested on: JAK2-STAT signaling pathways in HEL cells; experiment: Western blot analysis of JAK2-STAT signaling in HEL cells; assay type: cell-based, human; conditions: 0.3-10 μM, 0.5 h; for phosphorylation of JAK2 at Y221 site: dose-dependent
# Procedure: HEL cells were added into six-well plates (2 × 10^6 cells/well) and then put into the incubator (37 °C, 5% CO2). After 24 h, the tested compounds were diluted in RPMI-1640 medium (final DMSO concentration = 0.1%) with different concentrations (0 μM, 0.3 μM, 1 μM, 3 μM, and 10 μM) was added separately into the wells, and incubated for another 0.5 h, then cells were collected and lysed. Proteins from each sample were isolated by SDS-PAGE and transferred to PVDF membrane. The membranes were blocked in 5% milk (TBST) for 1 h at room temperature, and subsequently incubated with the indicated primary antibody in blocking buffer overnight at 4 °C. Primary antibodies were used as follows: p-Y1007/8-JAK2 (#3771, CST, 1:1000), p-Y221-JAK2 (#11150, SAB, 1:500), p-Y705-STAT3 (#11045, SAB, 1:1000), p-Y694-STAT5 (#13386, SAB, 1:2000), STAT3 (10253-2-AP, Proteintech, 1:4000), STAT5 (12071-1-AP, Proteintech, 1:4000), JAK2 (E-AB-70193, Elabscience, 1:2000) and β-Actin (E-AB-20034, Elabscience, 1:10000). Then the membranes were washed with TBST (3 × 5 min), incubated with HRP-conjugated secondary antibody for 1 h at room temperature, washed again, and then exposed by chemiluminescence method using the enhanced ECL immunoblotting system (Tanon, Shanghai, China). All the experiments were repeated in triplicate. Blot bands were quantified by densitometry using Image J software v1.51.
# CTK = biological target: T1, CTK (Homo sapiens, UniProt P42679); experiment: biochemical; set-up: DiscoveRx KINOMEscan competition binding, percent of DMSO control signal at 100 nM; conditions: read-out: Fig. 4a / Percent Control / Compound 1; percent of DMSO control, competition binding
# T1 construct: gene MATK
# MAP3K2 = MAP3K2 (Homo sapiens, UniProt Q9Y2U5); experiment: biochemical; set-up: DiscoveRx KINOMEscan competition binding, percent of DMSO control signal at 100 nM; conditions: read-out: Fig. 4a / Percent Control / Compound 1; percent of DMSO control, competition binding
# Chain of MAP3K2 (Q9Y2U5 whole entry): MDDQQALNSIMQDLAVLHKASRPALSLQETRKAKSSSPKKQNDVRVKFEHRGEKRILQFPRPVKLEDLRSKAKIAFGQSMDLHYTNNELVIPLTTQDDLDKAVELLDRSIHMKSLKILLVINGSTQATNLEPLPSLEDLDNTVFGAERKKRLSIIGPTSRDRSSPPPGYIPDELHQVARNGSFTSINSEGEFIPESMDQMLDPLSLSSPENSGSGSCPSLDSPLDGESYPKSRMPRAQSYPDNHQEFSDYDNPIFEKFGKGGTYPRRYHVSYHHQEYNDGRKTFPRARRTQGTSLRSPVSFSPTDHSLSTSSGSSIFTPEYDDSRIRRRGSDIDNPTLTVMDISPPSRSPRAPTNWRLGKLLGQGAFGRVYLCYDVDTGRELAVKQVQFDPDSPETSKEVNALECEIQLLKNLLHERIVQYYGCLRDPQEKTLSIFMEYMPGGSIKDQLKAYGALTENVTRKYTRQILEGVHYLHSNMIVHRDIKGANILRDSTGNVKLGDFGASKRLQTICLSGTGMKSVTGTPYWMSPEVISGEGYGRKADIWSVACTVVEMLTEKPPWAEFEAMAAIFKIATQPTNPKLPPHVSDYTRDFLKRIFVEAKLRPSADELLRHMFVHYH
# [2] = biological target: T2, JAK3(JH1domain-catalytic) (Homo sapiens, UniProt P52333); experiment: biochemical; set-up: DiscoveRx KINOMEscan competition binding, percent of DMSO control signal at 100 nM; conditions: read-out: Fig. 4a / Percent Control / Compound 1; percent of DMSO control, competition binding
# T2 construct: JH1domain-catalytic
# DYRK2 = DYRK2 (Homo sapiens, UniProt Q92630); experiment: biochemical; set-up: DiscoveRx KINOMEscan competition binding, percent of DMSO control signal at 100 nM; conditions: read-out: Fig. 4a / Percent Control / Compound 1; percent of DMSO control, competition binding
# PAK2 = PAK2 (Homo sapiens, UniProt Q13177); experiment: biochemical; set-up: DiscoveRx KINOMEscan competition binding, percent of DMSO control signal at 100 nM; conditions: read-out: Fig. 4a / Percent Control / Compound 1; percent of DMSO control, competition binding
# Chain of PAK2 (Q13177 whole entry): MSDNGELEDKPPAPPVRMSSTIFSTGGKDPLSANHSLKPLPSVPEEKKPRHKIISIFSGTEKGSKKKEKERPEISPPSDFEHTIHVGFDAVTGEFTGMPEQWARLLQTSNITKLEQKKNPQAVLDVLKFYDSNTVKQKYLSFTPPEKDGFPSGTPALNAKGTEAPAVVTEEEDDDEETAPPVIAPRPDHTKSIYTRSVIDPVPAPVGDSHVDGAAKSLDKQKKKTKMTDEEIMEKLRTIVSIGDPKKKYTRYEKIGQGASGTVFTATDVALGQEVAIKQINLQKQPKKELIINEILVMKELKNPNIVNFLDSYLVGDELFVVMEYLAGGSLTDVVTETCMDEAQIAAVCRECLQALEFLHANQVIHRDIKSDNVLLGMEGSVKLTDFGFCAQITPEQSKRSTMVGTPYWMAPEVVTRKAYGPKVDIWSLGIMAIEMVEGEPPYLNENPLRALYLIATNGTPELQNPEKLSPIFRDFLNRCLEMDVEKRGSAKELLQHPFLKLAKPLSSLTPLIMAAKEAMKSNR
# [3] = biological target: T3, JAK2(JH1domain-catalytic) (Homo sapiens, UniProt O60674); experiment: biochemical; set-up: DiscoveRx KINOMEscan competition binding, percent of DMSO control signal at 100 nM; conditions: read-out: Fig. 4a / Percent Control / Compound 1; percent of DMSO control, competition binding
# T3 construct: JH1domain-catalytic
# T3 sequence (O60674 whole entry): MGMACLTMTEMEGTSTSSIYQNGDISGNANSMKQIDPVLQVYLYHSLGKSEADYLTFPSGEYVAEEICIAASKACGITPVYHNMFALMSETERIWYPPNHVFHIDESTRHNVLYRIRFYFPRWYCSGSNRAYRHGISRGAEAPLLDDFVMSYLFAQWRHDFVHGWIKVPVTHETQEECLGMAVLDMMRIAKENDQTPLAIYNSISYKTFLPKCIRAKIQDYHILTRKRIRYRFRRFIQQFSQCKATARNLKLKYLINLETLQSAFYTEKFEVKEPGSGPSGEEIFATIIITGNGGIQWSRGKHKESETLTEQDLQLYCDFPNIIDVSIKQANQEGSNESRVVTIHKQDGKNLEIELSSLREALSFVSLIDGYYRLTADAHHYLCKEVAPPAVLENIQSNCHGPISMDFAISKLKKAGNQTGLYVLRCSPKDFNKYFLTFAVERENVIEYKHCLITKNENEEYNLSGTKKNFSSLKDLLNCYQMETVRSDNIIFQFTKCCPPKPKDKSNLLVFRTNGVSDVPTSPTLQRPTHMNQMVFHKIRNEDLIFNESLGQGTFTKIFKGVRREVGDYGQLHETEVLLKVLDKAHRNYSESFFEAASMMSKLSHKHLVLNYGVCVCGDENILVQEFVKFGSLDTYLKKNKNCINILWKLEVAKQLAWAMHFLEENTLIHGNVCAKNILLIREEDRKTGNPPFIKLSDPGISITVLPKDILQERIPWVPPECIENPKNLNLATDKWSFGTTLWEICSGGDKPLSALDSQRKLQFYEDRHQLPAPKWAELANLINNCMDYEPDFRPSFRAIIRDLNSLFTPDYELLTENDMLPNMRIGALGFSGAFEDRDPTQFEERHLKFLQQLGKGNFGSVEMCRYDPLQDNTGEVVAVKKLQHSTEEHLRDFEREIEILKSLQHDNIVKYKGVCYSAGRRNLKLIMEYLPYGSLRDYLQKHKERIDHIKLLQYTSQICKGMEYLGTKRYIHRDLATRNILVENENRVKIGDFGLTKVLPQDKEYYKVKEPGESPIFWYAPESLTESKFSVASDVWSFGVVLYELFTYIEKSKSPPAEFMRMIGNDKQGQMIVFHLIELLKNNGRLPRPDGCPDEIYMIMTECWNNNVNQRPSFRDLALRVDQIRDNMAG
# [4] = biological target: T4, JAK1(JH2domain-pseudokinase) (Homo sapiens, UniProt P23458); experiment: biochemical; set-up: DiscoveRx KINOMEscan competition binding, percent of DMSO control signal at 100 nM; conditions: read-out: Fig. 4a / Percent Control / Compound 1; percent of DMSO control, competition binding
# T4 construct: JH2domain-pseudokinase
# CSNK1G2 = CSNK1G2 (Homo sapiens, UniProt P78368); experiment: biochemical; set-up: DiscoveRx KINOMEscan competition binding, percent of DMSO control signal at 100 nM; conditions: read-out: Fig. 4a / Percent Control / Compound 1; percent of DMSO control, competition binding
# PIM1 = PIM1 (Homo sapiens, UniProt P11309); experiment: biochemical; set-up: DiscoveRx KINOMEscan competition binding, percent of DMSO control signal at 100 nM; conditions: read-out: Fig. 4a / Percent Control / Compound 1; percent of DMSO control, competition binding
# ERK4 = biological target: T5, ERK4 (Homo sapiens, UniProt P31152); experiment: biochemical; set-up: DiscoveRx KINOMEscan competition binding, percent of DMSO control signal at 100 nM; conditions: read-out: Fig. 4a / Percent Control / Compound 1; percent of DMSO control, competition binding
# T5 construct: gene MAPK4
# PRKG2 = PRKG2 (Homo sapiens, UniProt Q13237); experiment: biochemical; set-up: DiscoveRx KINOMEscan competition binding, percent of DMSO control signal at 100 nM; conditions: read-out: Fig. 4a / Percent Control / Compound 1; percent of DMSO control, competition binding
# [5] = biological target: T6, RSK4(Kin.Dom.1-N-terminal) (Homo sapiens, UniProt Q9UK32); experiment: biochemical; set-up: DiscoveRx KINOMEscan competition binding, percent of DMSO control signal at 100 nM; conditions: read-out: Fig. 4a / Percent Control / Compound 1; percent of DMSO control, competition binding
# T6 construct: gene RPS6KA6; Kin.Dom.1-N-terminal
# T6 sequence (Q9UK32 whole entry): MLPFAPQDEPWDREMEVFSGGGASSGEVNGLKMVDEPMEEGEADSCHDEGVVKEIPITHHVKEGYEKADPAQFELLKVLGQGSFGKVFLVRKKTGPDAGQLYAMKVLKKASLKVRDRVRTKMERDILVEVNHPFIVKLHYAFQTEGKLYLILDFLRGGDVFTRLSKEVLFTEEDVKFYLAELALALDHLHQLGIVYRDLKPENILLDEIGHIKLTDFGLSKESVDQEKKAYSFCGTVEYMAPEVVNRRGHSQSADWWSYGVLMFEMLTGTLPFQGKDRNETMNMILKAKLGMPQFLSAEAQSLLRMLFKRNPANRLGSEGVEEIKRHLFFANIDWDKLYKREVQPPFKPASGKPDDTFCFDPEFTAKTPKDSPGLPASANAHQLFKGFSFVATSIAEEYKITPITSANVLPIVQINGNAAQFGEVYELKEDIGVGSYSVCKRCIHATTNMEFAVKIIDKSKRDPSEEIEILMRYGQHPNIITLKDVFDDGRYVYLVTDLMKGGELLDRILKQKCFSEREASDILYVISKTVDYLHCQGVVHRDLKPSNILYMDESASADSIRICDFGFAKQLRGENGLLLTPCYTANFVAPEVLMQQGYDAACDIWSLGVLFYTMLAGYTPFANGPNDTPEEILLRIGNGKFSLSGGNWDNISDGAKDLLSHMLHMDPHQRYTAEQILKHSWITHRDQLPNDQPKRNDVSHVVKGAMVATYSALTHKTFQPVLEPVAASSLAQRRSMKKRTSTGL
# PDGFRA = PDGFRA (Homo sapiens, UniProt P16234); experiment: biochemical; set-up: DiscoveRx KINOMEscan competition binding, percent of DMSO control signal at 100 nM; conditions: read-out: Fig. 4a / Percent Control / Compound 1; percent of DMSO control, competition binding
# BUB1 = BUB1 (Homo sapiens, UniProt O43683); experiment: biochemical; set-up: DiscoveRx KINOMEscan competition binding, percent of DMSO control signal at 100 nM; conditions: read-out: Fig. 4a / Percent Control / Compound 1; percent of DMSO control, competition binding
# Chain of BUB1 (O43683 whole entry): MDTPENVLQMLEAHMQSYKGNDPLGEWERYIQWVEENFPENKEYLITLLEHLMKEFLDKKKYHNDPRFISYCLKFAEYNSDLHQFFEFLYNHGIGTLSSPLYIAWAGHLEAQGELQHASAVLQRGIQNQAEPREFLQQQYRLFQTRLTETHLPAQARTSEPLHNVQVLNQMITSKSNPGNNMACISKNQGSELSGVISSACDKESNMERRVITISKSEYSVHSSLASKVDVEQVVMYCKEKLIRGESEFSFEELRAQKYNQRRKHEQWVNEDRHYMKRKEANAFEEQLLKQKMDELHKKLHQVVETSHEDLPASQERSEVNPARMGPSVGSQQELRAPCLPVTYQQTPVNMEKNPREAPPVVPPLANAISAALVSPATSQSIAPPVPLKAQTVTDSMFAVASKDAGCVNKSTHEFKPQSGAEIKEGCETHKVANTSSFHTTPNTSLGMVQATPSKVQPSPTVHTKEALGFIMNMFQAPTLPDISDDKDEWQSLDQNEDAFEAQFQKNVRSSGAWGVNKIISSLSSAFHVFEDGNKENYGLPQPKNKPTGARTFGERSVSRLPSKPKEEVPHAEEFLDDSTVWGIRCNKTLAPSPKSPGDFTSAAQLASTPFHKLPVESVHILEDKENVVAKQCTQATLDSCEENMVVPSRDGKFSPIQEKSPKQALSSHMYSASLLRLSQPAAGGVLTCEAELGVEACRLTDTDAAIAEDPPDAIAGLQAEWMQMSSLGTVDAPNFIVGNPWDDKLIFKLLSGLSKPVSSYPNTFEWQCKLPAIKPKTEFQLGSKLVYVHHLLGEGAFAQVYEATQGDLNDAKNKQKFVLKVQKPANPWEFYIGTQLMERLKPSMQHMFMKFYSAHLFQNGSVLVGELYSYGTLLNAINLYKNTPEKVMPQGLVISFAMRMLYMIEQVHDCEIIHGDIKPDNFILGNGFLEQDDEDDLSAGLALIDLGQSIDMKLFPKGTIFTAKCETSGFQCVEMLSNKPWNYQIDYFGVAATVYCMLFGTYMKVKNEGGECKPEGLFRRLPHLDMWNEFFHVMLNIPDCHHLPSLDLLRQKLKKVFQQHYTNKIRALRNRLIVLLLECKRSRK
# BIKE = biological target: T7, BIKE (Homo sapiens, UniProt Q9NSY1); experiment: biochemical; set-up: DiscoveRx KINOMEscan competition binding, percent of DMSO control signal at 100 nM; conditions: read-out: Fig. 4a / Percent Control / Compound 1; percent of DMSO control, competition binding
# T7 construct: gene BMP2K
# EGFR(G719S) = EGFR(G719S) (Homo sapiens, UniProt P00533, G719S); experiment: biochemical; set-up: DiscoveRx KINOMEscan competition binding, percent of DMSO control signal at 100 nM; conditions: read-out: Fig. 4a / Percent Control / Compound 1; percent of DMSO control, competition binding
# DYRK1B = DYRK1B (Homo sapiens, UniProt Q9Y463); experiment: biochemical; set-up: DiscoveRx KINOMEscan competition binding, percent of DMSO control signal at 100 nM; conditions: read-out: Fig. 4a / Percent Control / Compound 1; percent of DMSO control, competition binding
# Procedure: (§1) The kinase selectivity profile was performed by using the DiscoveRx KINOMEscan platform. […] Test compounds were prepared as 40× stocks in 100% DMSO and directly diluted into the assay. The results were defined as a percentage of signal between the negative (DMSO, 100% control) and the positive (control compound, 0% control) control, which was calculated as follows: percent control = [(test compound signal − positive control signal)/(negative control signal − positive control signal)] × 100.
# LTK = LTK (Homo sapiens, UniProt P29376); experiment: biochemical; set-up: DiscoveRx KINOMEscan competition binding, percent of DMSO control signal at 100 nM; conditions: read-out: Fig. 4a / Percent Control / Compound 1; percent of DMSO control, competition binding
# Chain of LTK (P29376 whole entry): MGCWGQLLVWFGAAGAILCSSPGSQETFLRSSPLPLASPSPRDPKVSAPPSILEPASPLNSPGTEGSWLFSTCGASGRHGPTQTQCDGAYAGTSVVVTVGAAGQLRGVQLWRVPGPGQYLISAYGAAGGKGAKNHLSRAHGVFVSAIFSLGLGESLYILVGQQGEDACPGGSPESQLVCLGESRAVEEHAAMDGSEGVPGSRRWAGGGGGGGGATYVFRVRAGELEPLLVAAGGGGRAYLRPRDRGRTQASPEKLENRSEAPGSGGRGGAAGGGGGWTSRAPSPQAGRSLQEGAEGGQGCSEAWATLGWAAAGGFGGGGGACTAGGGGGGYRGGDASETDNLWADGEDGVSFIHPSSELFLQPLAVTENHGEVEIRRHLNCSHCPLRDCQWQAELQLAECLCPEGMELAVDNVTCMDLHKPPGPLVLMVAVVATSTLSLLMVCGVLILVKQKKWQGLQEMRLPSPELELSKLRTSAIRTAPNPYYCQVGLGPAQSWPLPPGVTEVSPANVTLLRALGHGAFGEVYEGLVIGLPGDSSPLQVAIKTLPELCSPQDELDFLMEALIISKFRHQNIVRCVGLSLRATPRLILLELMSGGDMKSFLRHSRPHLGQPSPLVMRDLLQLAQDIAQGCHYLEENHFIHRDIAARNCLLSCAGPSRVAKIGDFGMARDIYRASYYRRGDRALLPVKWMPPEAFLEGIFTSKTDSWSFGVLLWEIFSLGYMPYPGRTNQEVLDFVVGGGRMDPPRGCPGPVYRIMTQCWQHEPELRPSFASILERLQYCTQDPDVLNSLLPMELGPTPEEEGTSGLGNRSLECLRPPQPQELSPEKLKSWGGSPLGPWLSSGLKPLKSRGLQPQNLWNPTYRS
# Procedure: as §1
structure (smiles),measurement,setting,value
Cc1cnc2nc1Nc1cccc(c1)COCc1cc(ccc1OCCN1CCCC1)N2 [Compound 1],activation of downstream signaling molecule STAT3 and STAT5,[1],significantly inhibited
same,phosphorylation of JAK2 at Y1007/8 site,[1],increased
same,phosphorylation of JAK2 at Y221 site,[1],efficiently blocked
same,remaining binding at 0.1 µM,CTK,97%
same,remaining binding at 0.1 µM,MAP3K2,50%
same,remaining binding at 0.1 µM,[2],12%
same,remaining binding at 0.1 µM,DYRK2,90%
same,remaining binding at 0.1 µM,PAK2,100%
same,remaining binding at 0.1 µM,[3],0%
same,remaining binding at 0.1 µM,[4],36%
same,remaining binding at 0.1 µM,CSNK1G2,99%
same,remaining binding at 0.1 µM,PIM1,100%
same,remaining binding at 0.1 µM,ERK4,81%
same,remaining binding at 0.1 µM,PRKG2,47%
same,remaining binding at 0.1 µM,[5],64%
same,remaining binding at 0.1 µM,PDGFRA,73%
same,remaining binding at 0.1 µM,BUB1,82%
same,remaining binding at 0.1 µM,BIKE,47%
same,remaining binding at 0.1 µM,EGFR(G719S),91%
same,remaining binding at 0.1 µM,DYRK1B,100%
same,remaining binding at 0.1 µM,LTK,100%
Cc1cnc2nc1Nc1cccc(c1)COCC=CCOCc1cc(ccc1OCCN1CCCC1)N2 [Compound 3],activation of downstream signaling molecule STAT3 and STAT5,[1],significantly inhibited
same,phosphorylation of JAK2 at Y1007/8 site,[1],increased
same,phosphorylation of JAK2 at Y221 site,[1],efficiently blocked

# Source: article PMC10382584, “Macrocyclization of linear molecules by deep learning to facilitate macrocyclic drug candidates discovery” (Nature Communications, 2023)
